The values below come from patent publication US20090318402A1, “RUTHENIUM (II) COMPOUNDS” (The University Court of the University of Edinburg, priority 2006, published 2009).

The test system of data set [1] is A549 cancer cell line. The experiment in a line: Cell viability after increasing thiol levels (NAC pre-incubation). The settings on record: 24 hours incubation, 96 hour recovery, 5 mM NAC for two hours, FIG. 5. Type of data set: cell-based. On the procedure: Cell viability was determined in the A549 cancer cell line after cells were pre-incubated with 5 mM NAC to increase intracellular thiol levels. […] This implies that ROS are involved in cell death.

For data set [2], the system named is A549 cancer cell line. The experiment in a line: Cytotoxicity: inhibitory growth activity, sulforhodamine B assay. The data set is classed as cell-based. The settings on record: 24 hours drug exposure, 96 hours recovery, SRB. On the procedure: (§1) Compounds were tested for inhibitory growth activity against the A2780 and A549 cancer cell lines. Each drug was tested for activity at six different concentrations (100 μM, 50 μM, 10 μM, 5 μM, 1 μM and 0.1 μM) and each concentration was tested in triplicate, relative to a cisplatin control.
The A2780 cancer cell line was maintained by growing the cells in RPMI media supplemented with 5% fetal bovine serum, 1% penicillin/streptomycin and 2 mM L-glutamine. […] The cells were kept incubated at 37° C., 5% CO2, high humidity. The A549 cancer cell line was maintained by growing the cells in DMEM media supplemented with 10% fetal bovine serum, 1% penicillin/streptomycin and 2 mM L-glutamine. […] The cells were kept incubated at 37° C., 5% CO2, high humidity.
A2780 cancer cells were plated out at 50000 cells/well (±10%) on day one. A549 cancer cells were plated out at 20000 cells/well (±10%) on day two. […] The remaining biomass was estimated by the sulforhodamine B assay. The cells were then fixed using 50 μl 50% (w/v) TCA and incubated at 4° C. for one hour. The biomass was stained with 100 μl 0.4% (w/v) sulforhodamine B in 1% acetic acid. The dye was solubilised with Tris Buffer and the absorbance was read using a BMG Fluostar microplate reader at 595 nm. A baseline correction at 690 nm was subtracted from the values. The absorbance for 100% cell survival was based on the average absorbance for the 0.1 μM dosed triplicate for that drug. IC50 values were calculated using XL-Fit version 4.0.

Data set [3] deals with A2780 cancer cell line. Described as above. Type of data set: cell-based. The settings on record: 24 hours drug exposure, 96 hours recovery, SRB. The method, then: as §1
The A2780 cancer cell line was maintained by growing the cells in RPMI media supplemented with 5% fetal bovine serum, 1% penicillin/streptomycin and 2 mM L-glutamine. The cells were split when approximately 70-80% confluence were reached using 0.25% trypsin/EDTA. The cells were kept incubated at 37° C., 5% CO2, high humidity. The A549 cancer cell line was maintained by growing the cells in DMEM media supplemented with 10% fetal bovine serum, 1% penicillin/streptomycin and 2 mM L-glutamine. The cells were split when approximately 70-80% confluence were reached using 0.25% trypsin/EDTA. The cells were kept incubated at 37° C., 5% CO2, high humidity.
A2780 cancer cells were plated out at 50000 cells/well (±10%) on day one. A549 cancer cells were plated out at 20000 cells/well (±10%) on day two. On day three the test compound was dissolved in DMSO to give a stock solution of 20 mM and serial dilutions were carried out in DMSO to give concentrations of drug in DMSO of 10 mM, 2 mM, 1 mM, 0.2 mM and 0.02 mM. These were added to the wells to give the six testing concentrations and a final concentration of DMSO as 0.5% (v/v) with a total volume of drugs and media to be 200 μl. The cells were exposed to the drug for 24 hours then, after drug removal, fresh media was given and the cells were incubated for 96 hours recovery time. The remaining biomass was estimated by the sulforhodamine B assay. The cells were then fixed using 50 μl 50% (w/v) TCA and incubated at 4° C. for one hour. The biomass was stained with 100 μl 0.4% (w/v) sulforhodamine B in 1% acetic acid. The dye was solubilised with Tris Buffer and the absorbance was read using a BMG Fluostar microplate reader at 595 nm. A baseline correction at 690 nm was subtracted from the values. The absorbance for 100% cell survival was based on the average absorbance for the 0.1 μM dosed triplicate for that drug. IC50 values were calculated using XL-Fit version 4.0.

Data set [4] can be described thus: Aqueous solution chemistry followed by 1H NMR (hydrolysis, arene loss). The data set is classed as physicochemical. The settings on record: 100 μM. The method, then:
NMR-Spectroscopy: All ^1H NMR experiments for characterization of synthesized compounds were recorded on either a Bruker DMX 500 MHz spectrometer equipped with TBI [^1H, ^13C, ^15N] probe-head, equipped with z-field gradients or a Bruker DPX 360 MHz spectrometer. The proton signals were calibrated against the residual solvent peak, δ 7.27 (chloroform), 2.07 (acetone) and 2.52 (DMSO). The 2D ^1H-TOCSY and 2D ^1H COSY experiments for characterization were run on a Bruker DMX 500 MHz spectrometer. 2D-^1H ROESY experiment for characterization was recorded on a Bruker AVA […] spectrometer equipped with a with a TXI [^1H, ^13C, ^15N] probe-head, equipped with z-field gradients. All pH titration experiments were recorded on a Bruker AVA 600 MHz spectrometer where dioxan was added as an internal reference (δ 3.75, in 100% D2O). The water was suppressed using a 1D Double Pulse Field Gradient Spin Echo (DPFGSE) experiment. The aqueous solution behaviour was recorded on a Bruker bio 600 MHz spectrometer equipped with a cryoprobe and the water was suppressed using a 1D Double Pulse Field Gradient Spin Echo (DPFGSE) experiment. The chemical shifts were measured relative to dioxin (internal reference δ 3.75, in 90% H2O/10% D2O). All spectra were recorded using 5 mm quartz tubes at 298 K unless stated otherwise. All NMR data were processed using Xwin-NMR (Version 2.0 Bruker UK Ltd).
The complex was dissolved in H2O/D2O, the pH was taken, and NMR spectra were recorded at uniform time intervals at a fixed temperature using a multi-zg kinetic experiment program. After acquisition, Electrospray Mass Spectrometry was performed on a portion of the NMR solution.
The solution chemistry was followed by ^1H NMR unless stated otherwise.

For data set [5] the following is noted: 50 μM, 95% H2O, 5% MeOH, pH 2.27.
The subject of data set [6] is A549 cancer cells. The experiment in a line: Detection of reactive oxygen species (ROS) with DCFH-DA probe. Type of data set: cell-based. Particulars: 25 μM, 0.5% DMSO, 6.5 hours, 310 K, cells pre-loaded with DCFH-DA; FIG. 4. The method, then:
The generation of ROS can be detected inside living cells using the molecular probe DCFH-DA. This probe crosses the membrane into cells where it is hydrolyzed to DCFH. In the presence of ROS it is oxidized to highly fluorescent DCF. […] Cells were loaded with DCFH-DA (10 μM, 0.5% DMSO (v/v)) and were incubated at 310 K, 5% CO2, high humidity for 30 minutes. The probe was removed and the cells were washed twice with PBS (200 μL). The cells were then kept in Hanks Balanced Salt Solution (HBSS) and the ruthenium compounds were diluted with HBSS and added to the wells (25 μM, 0.5% DMSO (v/v)). Hydrogen peroxide (25 μM) was added as a positive control and the fluorescence was read every 200 seconds over a period of 6.5 hours at 310 K by excitation at 480±10 nm and emission at 538±15 nm on a BMG fluostar plate reader. A time course experiment was performed to follow any increase in fluorescence over 6.5 hours after addition of ruthenium compounds to cells pre-loaded with DFCH-DA.

Setting [7] is: 90% H2O/10% D2O, pH=ca 5, 25° C., initially (time=40 mins).

In the case of `[NH2][Pt]([NH2])([Cl])[Cl]` [CDDP, cisplatin, reference compound], the “cell survival of cells pre-treated with NAC versus untreated cells” value in data set [1] (5 μM drug) is reported as “greater cell survival”.

Take `CN(C)c1ccc(N=Nc2cc[nH]n2)cc1.F[P-](F)(F)(F)(F)F.[I-].[Ru+2].c1ccc(-c2ccccc2)cc1` [Compound 16, [Ru(biphenyl)(3(5)-(4-dimethylaminophenylazo)pyrazole)I]PF6]: the half-inhibitory concentration (IC50) came to 42 µM in data set [2] and 31 µM in data set [3].

As to “[Ru(p-cymene)(3(5)-(4-dimethylaminophenylazo)pyrazole)Cl]PF6 [Compound 14]”, the figures for the IC50 in data set [2] and in data set [3] were 41 µM and 18 µM, respectively. Moreover, in data set [4] (90% H2O/10% D2O, pH=ca 5, 25° C., after 24 hours), the “speciation after 24 hours” value was “exists fully in the aqua form”. The compound also gave an aqua species in data set [4] (setting [7]) of approximately 40%. Besides, in data set [4] (setting [7]), the chloride species is approximately 60%. For the same compound, the “course of the hydrolysis reaction” value in data set [4] (90% H2O/10% D2O, pH=ca 5, 37° C. over 24 hours, compared with 25° C.) is on record as “the course of the reaction is the same”. In data set [5], the “half live for hydrolysis” value is recorded as 2.09 h.

“[Ru(biphenyl)(4-phenol-azo pyridine)I]PF6 [Compound 13]”: in data set [6], the “change in DCF fluorescence over time (ROS generation)” value (shortened to “change in DCF fluorescence over time”) was “increase in the DCF fluorescence”. Further, the figures for the IC50 in data set [2] and in data set [3] were 6 µM and 5 µM, respectively. Also, in data set [1] (5 μM drug), the “cell survival of cells pre-treated with NAC versus untreated cells” value is reported as “greater cell survival”.

Turning to “[Ru(p-cymene)(Azpy-NMe2NO2)I]PF6 [Compound 20]”, the values for the IC50 in data set [2] and in data set [3] were 28 µM and 40 µM, respectively.

“[Ru(p-cymene)(4-phenol-azo pyridine)Cl]PF6 [Compound 11]” returned an IC50 in data set [3] of 54 µM.

As for “[(η^6-C6H5OCH2CH2OH)Ru(azpy-NMe2)I]I [Compound 22]”, the IC50 in data set [2] came to 49 µM; in data set [3] it was 15 µM.

For “[Ru(THN)(3(5)-(4-dimethylaminophenylazo)pyrazole)Cl]PF6 [Compound 18]”, it took 57 µM to reach half-maximal inhibition in data set [3] (IC50).

For “[Ru(bip)(2-phenyl-azo pyridine)I]PF6 [Compound 7]”, the IC50 in data set [2] is 39 µM; in data set [3], 51 µM.

Take “[Ru(biphenyl)(4-phenol-azo pyridine)Cl]PF6 [Compound 12]”: the IC50 in data set [2] is 56 µM; in data set [3] it was 18 µM.

As for `CN(C)c1ccc(N=Nc2cc[nH]n2)cc1.F[P-](F)(F)(F)(F)F.[Cl-].[Ru+2].c1ccc(-c2ccccc2)cc1` [Compound 15, [Ru(biphenyl)(3(5)-(4-dimethylaminophenylazo)pyrazole)Cl]PF6], the IC50 in data set [2] stood at 32 µM; in data set [3], 24 µM. The “arene loss (free biphenyl peaks)” value in data set [4] (99.5% D2O, 0.5% DMSO, 115 mM NaCl, pH=7.35, 37° C., over 24 hours) is on record as “major peaks corresponding to free biphenyl”.

Regarding “[Ru(biphenyl)(Azpy-NMe2)I]PF6 [Compound 10]”, the “change in DCF fluorescence over time” value in data set [6] is on record as “increase in the DCF fluorescence”. Besides, the IC50 in data set [2] amounted to 2 µM; in data set [3], 3 µM. Besides, the “cell survival of cells pre-treated with NAC versus untreated cells” value in data set [1] (1 μM drug) was “greater cell survival”.

Turning to “[Ru(THN)(4-phenol-azo pyridine)Cl]PF6 [Compound 19]”, the IC50 came out at 81 µM in data set [2] and 38 µM in data set [3].

In the case of “[Ru(p-cymene)(4-phenol-azo pyridine)I]PF6 [Compound 21]”, the “change in DCF fluorescence over time” value in data set [6] was “increase in the DCF fluorescence”. Further, the IC50 in data set [2] and in data set [3] was 4 µM throughout. Further, the “cell survival of cells pre-treated with NAC versus untreated cells” value in data set [1] (5 μM drug) was “greater cell survival”.

In the case of “[Ru(biphenyl)(Azpy-NMe2)Cl]PF6 [Compound 9]”, the values for the IC50 in data set [2] and in data set [3] were 53 µM and 40 µM, respectively.

Compound “[Ru(benzene)(3(5)-(4-dimethylaminophenylazo)pyrazole)Cl]PF6 [Compound 17]” came in with an IC50 in data set [3] of 88 µM.
